Data set [1] is described as follows: Metabolic stability in mouse liver S9 fractions. To be noted: presence of the cofactor mixture (NADPH, UDPGA, PAPS, GSH), 37 °C, 60 min. The format is in vitro ADME. On the procedure:
Working solutions of the test compounds (baicalein, 7-EC, and compounds 1–7) prepared in 50 vol% aqueous MeOH at 120 μM were added in triplicate to a 200 mM tris buffer (pH 7.4) containing mouse liver S9 fractions (1 mg protein/mL), alamethicin (25 μg/mL) and MgCl2 (2 mM). The final concentration of test compound was 3 μM. This mixture was pre-incubated at 37 °C in a shaking water bath for 5 min followed by addition of a cofactor mixture to following final concentrations: 1 mM NADPH, 0.5 mM UDPGA, 0.1 mM PAPS and 2.5 mM GSH. A 50 μL aliquot was taken at 0, 15, 30 and 60 min from each incubation mixture. These samples were then treated in the same way as described above in Mouse plasma stability assay. The supernatant was analyzed by Agilent 6530 Q−TOF LC−MS/MS system in a positive auto MS/MS scan mode. The liquid chromatography was conducted in the same condition as described above in mouse plasma stability assay. The analytical data were analyzed using Agilent MassHunter Quantitative Analysis Software (version B.05.00). MS chromatograms were extracted using calculated exact masses ([M+H]^+) for the analytes. Peak area ratios of the analytes vs. IS on the extracted MS chromatograms were used to calculate % remaining values at each time points.

Data set [2] in a line: Chemical stability in physiologically-relevant solutions. To be noted: 37 °C; for remaining at 4 h, 10 μM: at 4 h vs time 0. It is filed as physicochemical. On the procedure: Stock solutions of the test compounds (baicalein, compounds 1–7) prepared in MeOH at 10 mM were diluted in 0.1 N HCl and 0.1 M potassium phosphate buffer (pH 6.5 and 7.4) in triplicate to a final concentration of 10 μM. The mixtures were then incubated at 37 °C in a shaking water bath. Samples taken at 0, 1, 2, 3 and 4 h were analyzed by Thermo UltiMate 3000 series HPLC system. Chromatographic separation was performed on an Agilent Eclipse Plus C18 column (100 × 4.6 mm, 3.5 µm) kept at 40 °C with isocratic elution at a flow rate of 0.6 mL/min using a mixture of 0.1 vol% TFA in deionized water and acetonitrile as the mobile phase. The detection wavelengths were 277 and 270 nm for baicalein and compounds 1–7, respectively. Peak areas of the analytes on the UV chromatograms were used to calculate % remaining values at each time points.
The stability of baicalein and of the synthesized carbamate prodrugs (1–7) was determined in solutions mimicking gastric (0.1 N HCl, pH ~ 1), intestinal (pH 6.5 phosphate buffer), and physiological (pH 7.4 phosphate buffer) conditions. […]. […] […]. The degradation of the carbamate prodrugs was accompanied by the formation of baicalein under all conditions in this study (data not shown). Although the exact reason for this pH-dependent stability remains unknown, it is plausible that the side chains of amino acids somehow affect the hydrolysis of the carbamate bond of the prodrugs.

Data set [3] in a line: logD7.4 by shake-flask method. The format is physicochemical. To be noted: 0.1 M phosphate buffer (pH 7.4), duplicate. On the procedure:
The assay was conducted as reported previously. Briefly, 100 µM test solutions were prepared by diluting 10 mM stock solutions of the test compounds (baicalein and compounds 1–7) in 0.1 M potassium phosphate buffer (pH 7.4) saturated with 1-octanol. Standard solutions were prepared by diluting each test solution with the same volume of DMSO in HPLC vials. Partition solutions were prepared by mixing each test solution and 1-octanol saturated with 0.1 M potassium phosphate buffer (pH 7.4) at three different volume ratios, namely 1:0.02, 1:0.2 and 1:2, in HPLC vials. The partition solutions were then vortexed for 1 h at 1500 rpm at rt. The standard solutions and the aqueous phase (bottom layer) of each partition solution were analyzed directly from the HPLC vials as described above in Chemical stability assay. The logD7.4 values were calculated by the following equation: logD7.4=log(2×As/Ap−1)·Vt/Vo where As and Ap are, respectively, the peak areas of the standard and the aqueous phase of the partition solutions and Vt and Vo the volumes of test solution and 1-octanol of the partition solutions.

Data set [4] is described as follows: Stability in mouse plasma. It is filed as in vitro ADME. Here is the method:
Working solutions of the test compounds (baicalein, enalapril, and compounds 1–7) prepared in 50 vol% aqueous MeOH at 40 μM were diluted in mouse plasma in triplicate to a final concentration of 1 μM. The mixtures were then incubated at 37 °C in a shaking water bath. A 50 μL aliquot was removed at 0 and 60 min from each incubation mixture followed by immediate mixing with 150 μL ice-cold MeOH containing 1 μg/mL glipizide as the internal standard (IS). The resulting mixtures, following a 5-min vortexing and sonication, were then centrifuged at 3000 rpm for 30 min at 4 °C. The supernatant was analyzed by Agilent 6460 QQQ LC−MS/MS system in a positive multiple reaction monitoring (MRM) mode. Gradient elution was conducted on an Agilent Eclipse Plus C18 column (100 × 2.1 mm, 3.5 µm) at 40 °C with 0.1 vol% formic acid in deionized water and 0.1 vol% formic acid in acetonitrile running at 0.45 mL/min. MRM transitions of the analytes were set as follows: baicalein: m/z 271→123, enalapril: m/z 377→234, 1: m/z 428→271, 2: m/z 414→271, 3: m/z 428→271, 4: m/z 416→271, 5: m/z 462→271, 6: m/z 386→271, 7: m/z 372→271, and glipizide: m/z 446→321. The analytical data were analyzed using Agilent MassHunter Quantitative Analysis Software (version B.05.00). Peak area ratios of the analytes vs. IS on the MRM chromatograms were used to calculate % remaining at 60 min.

A further data set can be described thus: Mouse pharmacokinetics. It is filed as in vivo, male ICR mice. To be noted: for AUC(0-t) / Cmax / Tmax / AUC(0-inf) / half-life: male, ICR, mouse. Here is the method:
Pharmacokinetic studies were conducted with male ICR mice (8 weeks old; 30–35 g body wt.) purchased from Koatech Company (Pyeongtaek, Korea), as reported previously. Intravenous dosing solutions were prepared in EtOH/20% aqueous HPβCD (10/90 vol%) at 2 and 3 mg/mL for baicalein and compound 2, respectively. Oral dosing solutions were prepared in EtOH/tween 80/20% aqueous HPβCD (10/10/80 vol%) at 1 and 1.5 mg/mL for baicalein and compound 2, respectively. Plasma sample analysis was performed as described above in mouse plasma stability assay.

A short description of a further data set: in vitro. To be noted: PAMPA.
A short description of data set [5]: Kinetic solubility in phosphate buffer (pH 7.4). The format is physicochemical. To be noted: aqueous buffer, kinetic from dmso stock; shake-flask, 0.1 M phosphate buffer (pH 7.4), triplicate. Here is the method:
Stock solutions of the test compounds (baicalein and compounds 1–7) prepared at 10 mM in DMSO were diluted with 0.1 M potassium phosphate buffer (pH 7.4) in Mini-UniPrep filter vial (PTFE membrane, 0.45 μm) to a final concentration of 500 µM. The mixture was then shaken at 800 rpm for 90 min at rt and filtered by slowly pressing the upper tube of the Mini-Uniprep vial. The filtrate (300 µL) was then transferred to an HPLC vial containing same volume of acetonitrile. Sample analysis was conducted as described above in Chemical stability assay.

Where [6] appears, read: iv, plasma analyte after single i.v. dose of baicalein 10 mg/kg, mice.
The mark [7] stands for this setting: iv, plasma analyte after single i.v. dose of compound 2 15 mg/kg, mice.
[8] abbreviates: po, plasma analyte after single p.o. dose of compound 2 50 mg/kg, mice.

Structures are written as SMILES. In brackets after ≈: the same amount, converted by molar mass.

Method for in vitro: The assay was conducted as reported previously [15]. The samples were analyzed as described below in mouse plasma stability assay.

Regarding `CCOc1ccc2ccc(=O)oc2c1` [7-Ethoxycoumarin], in data set [1], the “metabolism in mouse liver S9 fractions” value is “rapid metabolism”.

Regarding `O=c1cc(-c2ccccc2)oc2cc(O)c(O)c(O)c12` [Baicalein, 5,6,7-trihydroxy-2-phenyl-4H-1-benzopyran-4-one], the half-life at 10 μM was over 4 h in data set [2] (0.1 M potassium phosphate buffer, pH 6.5 buffer (0.1 M potassium phosphate)); over 4 h in data set [2] (0.1 M potassium phosphate buffer, pH 7.4 buffer (0.1 M potassium phosphate)); over 4 h in data set [2] (pH 1, 0.1 N HCl, 10 μM). Moreover, the fraction remaining at 4 h, 10 μM in data set [2] (0.1 M potassium phosphate buffer, pH 6.5 buffer) was 101 ± 2.8%; in data set [2] (0.1 M potassium phosphate buffer, pH 7.4 buffer) it was 65.8 ± 2.6%; in data set [2] (pH 1, 0.1 N HCl), 104 ± 4.1%. In data set [3] (1-octanol / 0.1 M potassium phosphate buffer), this compound yielded a logD of 2.14. Besides, the fraction remaining at 1 h, 1 μM in data set [4] (mouse, plasma) was over 85%. The “metabolism in mouse liver S9 fractions” value in data set [1] is listed as “rapidly metabolized”. In addition, the “time plasma analyte was above the quantitation limit” value in “Mouse pharmacokinetics” (after i.v. dose of compound 2 (approximately equimolar to 10 mg/kg baicalein), mice) is on record as 8 h; in “Mouse pharmacokinetics” (after p.o. administration of compound 2, mice), 8 h; in the data set “Mouse pharmacokinetics” (after single i.v. dose of 10 mg/kg baicalein, mice), “up to 15 min”; in “Mouse pharmacokinetics” (after single p.o. dose of 10 mg/kg baicalein, mice, 24 h time course), “below the quantitation limit”. Moreover, the AUC(0-t) in “Mouse pharmacokinetics” (setting [6]) was found to be 1090 ± 640 ng·h/mL; in “Mouse pharmacokinetics” (setting [7]), 4240 ± 1430 ng·h/mL; in the data set “Mouse pharmacokinetics” (setting [8]), 450 ± 140 ng·h/mL. Also, the figures for the Cmax in the data set “Mouse pharmacokinetics” (setting [6]), in “Mouse pharmacokinetics” (setting [7]) and in “Mouse pharmacokinetics” (setting [8]) were 1470 ± 330 ng/mL, 4190 ± 450 ng/mL and 230 ± 90 ng/mL, respectively. Further, the Tmax in the data set “Mouse pharmacokinetics” (setting [6]) came out at 0.1 h; in “Mouse pharmacokinetics” (setting [7]), 0.1 h; in “Mouse pharmacokinetics” (setting [8]), 0.3 ± 0.09 h. The results for the AUC(0-inf) in “Mouse pharmacokinetics” (setting [7]) and in the data set “Mouse pharmacokinetics” (setting [8]) were 4390 ± 1570 ng·h/mL and 540 ± 150 ng·h/mL, respectively. Also, the half-life is 1.5 ± 0.3 h in the data set “Mouse pharmacokinetics” (setting [7]) and 2.6 ± 1.5 h in “Mouse pharmacokinetics” (setting [8]). In addition, the Papp in “in vitro” amounted to 5.75 ± 0.14 ×10⁻⁶ cm/s.

With `O=C(N[C@@H](Cc1ccccc1)C(=O)O)Oc1cc2oc(-c3ccccc3)cc(=O)c2c(O)c1O` [Compound 5, (S)-2-((((5,6-Dihydroxy-4-oxo-2-phenyl-4H-chromen-7-yl)oxy)carbonyl)amino)-3-phenylpropanoic acid], the half-life at 10 μM was 2.2 ± 0.4 h in data set [2] (buffer, pH 1, 0.1 N HCl, 10 μM); over 4 h in data set [2] (pH 6.5 buffer (0.1 M potassium phosphate)); over 4 h in data set [2] (pH 7.4 buffer (0.1 M potassium phosphate)). The fraction remaining at 4 h, 10 μM came to 27.4 ± 5.1% in data set [2] (buffer, pH 1, 0.1 N HCl); 78.5 ± 1.5% in data set [2] (pH 6.5 buffer); 70.2 ± 2.5% in data set [2] (pH 7.4 buffer). Further, the kinetic solubility at 90 min in data set [5] was 375 ± 21.4 µM (≈ 173 µg/mL). In data set [3], the logD amounted to 0.43. In data set [1], the “metabolism in mouse liver S9 fractions” value is reported as “metabolized much faster than the other prodrugs”.

As to `CCOC(=O)[C@H](CCc1ccccc1)N[C@@H](C)C(=O)N1CCC[C@H]1C(=O)O` [Enalapril, enalapril], in data set [4] (60 min incubation at 37 °C, 1 μM), the “% remaining in mouse plasma” value was “degraded”.

Values taken from article PMC8472512, “Synthesis and Biochemical Evaluation of Baicalein Prodrugs” (Pharmaceutics, 2021).
